From patent publication US5759996A, “Peptides useful for altering αv β3 -mediated binding” (priority 1995, dated 1998)
Where a SMILES comes first, the peptide text is derived from it. Bridges are numbered along the chain shown (N, C = ends). [ ]: non-standard residue; d: D form. Tic = O=C(O)[C@@H]1Cc2ccccc2CN1; Pen = CC(C)(S)[C@H](N)C(=O)O; Mpa = O=C(O)CCS

Tests used:
αv β3 integrin receptor = αv β3 integrin receptor (Homo sapiens, UniProt P05106+P06756); assay: series of in vitro assays of Example II (potency and selectivity summary)
[1] = half-life of peptide in serum; details: in vivo
Excerpt: Increased stability of a disulfide bonded peptide of the invention also can be conferred by incorporating a hydrophobic amino acid residue such as phenylalanine at position X1 or X8 or both X1 and X8 in an RGDNTic (SEQ ID NO: 31) or RGDDV (SEQ ID NO: 1) pharmacophore as disclosed herein. The presence of such a residue can stabilize the disulfide bond against enzymatic degradation (see Bauer et al., Life Sciences 31:1133-1140 (1982)). […] In addition, the half-life of a peptide in a subject can be determined, for example, by high performance liquid chromatography (HPLC) of serum samples collected from the subject at various times following administration of the peptide. One skilled in the art would know how to select appropriate elution buffers for HPLC based on the physico-chemical properties of a particular peptide.

[2] = rabbit, in vivo; cited from earlier work
[3] = cited from earlier work
osteoclasts = details: cited from earlier work
[4] = parathyroid hormone-induced hypercalcemia in mice; format: in vivo; details: parathyroidectomized mice, 4 hr infusion, various doses
Excerpt: Parathyroid hormone (PTH) activates osteoclasts, which are involved in bone resorption. Associated with the increased osteoclast activity is an increase in serum calcium. The PTH-induced hypercalcemia assay measures the level of serum calcium, which is an indication of bone resorption in a subject (Fischer et al., Endocrinology 132:1411-1413 (1993), which is incorporated herein by reference).
Swiss-Webster mice, which had been parathyroidectomized two weeks prior to beginning the assay, were obtained from Taconic Lab Animals and Services (Germantown N.Y.). Femoral vein catheters (PE-50 fused with PE10 polyethylene tubing; Becton Dickinson; Parsippany, N.J.) were installed in the mice, flushed and locked with heparinized saline (1:10), sutured to adjacent muscle and internalized within the inguinal space of the incision before closing the incision with wound clips. […]
The experiment was initiated by feeding the mice a calcium-deficient diet overnight, then injecting the mice the following morning with a bolus of 0.2 mg PTH/kg (hPTH 1-34; Bachem; Torrance Calif.), intravenously. […] Various doses of a peptide or vehicle were infused into an animal for 4 hr, then ionized serum calcium again was measured. […] Serum calcium measurements were expressed as the difference between the value 30 min before the PTH pulse and 4 hr after peptide infusion was started. […]

[5] = molecular target: T1, purified human α5 β1 (FnR) (Homo sapiens, UniProt P05556+P08648); assay: α5 β1 ELISA (competitive); format: binding
T1 construct: Fibronectin receptor (FnR) was purified from 100 mM octyl-glucopyranoside-extracted human placenta; from tissue; host or cells: human placenta
Protocol: Peptide binding to purified human α5 β1 (FnR) also was determined using a competitive ELISA. In these assays, Fn was immobilized to the wells and the binding of solubilized FnR in the presence of various concentrations of a peptide analogue was determined using a mouse monoclonal antibody to human β1 (clone P4C10; Gibco) and specific binding was visualized using a second antibody.
Microtiter wells were coated at RT by adding 100 μl of 2 μg/ml human Fn in TBS and incubating the plates overnight at 4° C. Following incubation, the plates were washed 3× with TBS/"TWEEN 20" (polyoxyethylenesorbitan monolaurate). RGD peptides were diluted in TBS containing 20 mM OG and 2 mM MnCl2 and 50 μl was added to wells at 10-fold serial dilutions. FnR was diluted in the same buffer and 50 μl was added to each well.
The plates were incubated for 3 hr at RT and washed with 300 μl TBS/"TWEEN 20" (polyoxyethylenesorbitan monolaurate). Bound receptor was incubated with 100 μl of the monoclonal anti-β1 antibody for 2 hr, then washed 3× with TBS/"TWEEN 20" (polyoxyethylenesorbitan monolaurate). […] The amount of bound second antibody was determined as described above.
The IC50 values for various RGD peptides were calculated by determining the concentration of a peptide that inhibited binding of Vn to αv β5 or αv β3 or of Fn to α5 β1, by 50%. […]

CC(=O)N[C@H]1CSSC[C@@H](C(N)=O)NC(=O)[C@@H]2Cc3ccccc3CN2C(=O)[C@H](CO)NC(=O)[C@H](CC(=O)O)NC(=O)CNC(=O)[C@H](CCCNC(=N)N)NC1=O [compound 812, Ac-CRGDS(Tic)C-NH2] (Ac-CRGDS[Tic]C-NH2; disulfide 1-7)
activity (FIG. 2 assays) (αv β3 integrin receptor; minimal-element peptides): demonstrate activity
potency (active at relatively low concentration) (αv β3 integrin receptor; summary of assays): particularly potent

CC(=O)N[C@@H](Cc1ccccc1)C(=O)N[C@H]1CSSC[C@@H](C(N)=O)NC(=O)[C@H](Cc2ccccc2)NC(=O)[C@H]([C@@H](C)O)NC(=O)[C@H](CC(=O)O)NC(=O)CNC(=O)[C@H](CCCNC(=N)N)NC1=O [peptide 220] (Ac-FCRGDTFC-NH2; disulfide 2-8)
half-life in serum [1]: relatively long half-life in serum

CC(=O)N[C@@H]1C(=O)N[C@@H](Cc2ccccc2)C(=O)N[C@@H](C)C(=O)N[C@@H](CCCNC(=N)N)C(=O)NCC(=O)N[C@@H](CC(=O)O)C(=O)N[C@@H](CC(N)=O)C(=O)N2CCC[C@H]2C(=O)N[C@H](C(N)=O)CSSC1(C)C [peptide 214] (Ac-[Pen]FARGDNPC-NH2; disulfide 1-9)
potency (active at relatively low concentration) (αv β3 integrin receptor; summary of assays): particularly potent

G(Pen)GRGDSPCA
neointimal hyperplasia [2]: inhibit neointimal hyperplasia

Echistatin
bone resorption in vivo [3]: inhibits bone resorption
binding to osteoclasts (osteoclasts): binds to osteoclasts in a nonselective manner
bone resorption in vitro (osteoclasts; in vitro): inhibits bone resorption in vitro

CC(C)[C@@H]1NC(=O)[C@H](CC(=O)O)NC(=O)[C@H](CC(=O)O)NC(=O)CNC(=O)[C@H](CCCNC(=N)N)NC(=O)CCSSC[C@@H](C(N)=O)NC1=O [compound 191] ([Mpa]RGDDVC-NH2; disulfide 1-7)
PTH-induced rise in serum ionized calcium [4]: decreased the PTH-induced rise in serum ionized calcium in a dose responsive manner

CC(=O)N[C@H]1CSSC(C)(C)[C@@H](C(N)=O)NC(=O)[C@@H]2CCCN2C(=O)[C@H](CC(N)=O)NC(=O)[C@H](CC(=O)O)NC(=O)CNC(=O)[C@H](CCCNC(=N)N)NC1=O [compound 228] (Ac-CRGDNP[Pen]-NH2; disulfide 1-7)
receptor selectivity (summary) (αv β3 integrin receptor; summary of assays): particularly receptor selective

C[C@@H]1NC(=O)[C@H](CCCNC(=N)N)NC(=O)CNC(=O)CC[C@@H](C(N)=O)NC(=O)[C@@H]2CCCN2C(=O)[C@H](CC(N)=O)NC(=O)[C@H](CC(=O)O)NC(=O)CNC(=O)[C@H](CCCNC(=N)N)NC1=O [compound 390] (GRARGDNPE-NH2; lactam N-9)
receptor selectivity α5 β1 versus αv β5 [5]: more selective toward α5 β1 than toward αv β5
